How the values were obtained:
Format in all cases: cell-based
IL-1β = IL-1β secretion by ELISA in LPS-induced mouse splenocytes; settings: LPS 2 μg/mL, peptide at 5 μM and 50 μM, 24 hours
Experimental: Inflammation was induced in mouse splenocytes, and the secretion amounts of inflammatory cytokines TNFα, IL-1β, and IFNγ were confirmed. In order to induce inflammation, the cells were treated with an inflammation-inducing antigen, LPS, and since TNFα corresponds to a signaling protein associated with inflammation, IL-1β corresponds to a cytokine that promotes inflammation, and IFNγ also corresponds to a cytokine that promotes inflammation, the degree of inflammation can be confirmed by measuring the secretion amounts of TNFα, IL-1B, and IFNγ.
Mouse splenocytes were dispensed into a 24-well plate at a concentration of 1×10^7 cells/well and cultured until the next day. The medium was replaced with serum-free medium, and after 4 hours, the cells were treated with LPS and the peptide of the present invention and then cultured again for another 24 hours. In order to induce inflammation, the cells were treated with LPS at 2 μg/mL, and the peptide at 5 μM and 50 μM, respectively. […]

IFNγ = IFNγ secretion by ELISA in mouse splenocytes induced with LPS, TGFβ and IL-23; settings: LPS 2 μg/mL, TGFβ 20 ng/ml, IL-23 20 ng/mL, 24 hours
From the text: Inflammation was induced by treating mouse splenocytes with LPS, which is an inflammation-inducing antigen, and TGFβ and IL-23, which are inflammatory cytokines, and the secretion amounts of the inflammatory cytokines IL-17, IL-1β, and IFNγ were confirmed. The descriptions of IL-17, IL-1B, and IFNγ are the same as above.
Mouse splenocytes were dispensed into a 24-well plate at a concentration of 1×10^7 cells/well and cultured until the next day. The medium was replaced with serum-free medium, and after 4 hours, the cells were treated with LPS, TGFβ, and IL-23 and the peptide of the present invention and then cultured again for another 24 hours. In order to induce inflammation, the cells were treated with LPS at 2 μg/mL, TGFβ at 20 ng/ml, IL-23 at 20 ng/mL, and the peptide at 5 μM and 50 μM, respectively. The mouse splenocytes in the group in which inflammation was not induced due to untreatment with LPS, TGFβ, and IL-23 (NON); the negative control group in which the cells were treated with LPS, TGFβ, and IL-23 but not treated with the peptide (NC); and the group in which the cells were treated with LPS, TGFβ, and IL-23 along with the peptide of the present invention at the same concentration as above, respectively, were reacted as described above and the cell cultures were recovered. […]

TNFα = TNFα mRNA level by RT-PCR in TNFα-induced mouse splenocytes; settings: TNFα 20 nM, peptide at 5 μM and 50 μM, 3 hours, compared to group not treated with the peptide
Experimental: In order to further confirm the anti-inflammatory effect of the peptide treatment of the present invention in addition to the results of Experimental Example <3-1>, inflammation was induced by treating mouse splenocytes with TNFα, and the expression levels of inflammatory cytokines TNFα and IL-1β, and Cox2, which is an inflammation-inducing marker, genes were confirmed. In order to induce inflammation, the cells were treated with cytokine TNFα, and since TNFα corresponds to a signaling protein associated with inflammation, IL-1β corresponds to a cytokine that promotes inflammation, and Cox2 is a protein associated with inflammation, the degree of inflammation can be confirmed by measuring the expression levels of TNFα, Cox2, and IL-1β genes.
Mouse splenocytes were dispensed into a 24-well plate at a concentration of 1× 10^7 cells/well and cultured until the next day. The medium was replaced with serum-free medium, and after 3 hours, the cells were treated with TNFα and the peptide of the present invention and then cultured for another 3 hours. In order to induce inflammation, the cells were treated with TNFα at 20 nM, and the peptide at 5 μM and 50 μM, respectively. […] After quantifying the amount of isolated RNA, cDNA was synthesized using a cDNA synthesis kit (Intron, Korea), PCR was performed using a PCR premix (Intron, Korea) and primers for TNFα, Cox2, and IL-1B. […]

TWNS [peptide of the present invention]
decreased: secretion amount of IL-1β (IL-1β) | secretion amount of IFNγ (IFNγ; peptide at 5 μM) | secretion amount of IFNγ (IFNγ; peptide at 50 μM) | mRNA expression level of TNFα (TNFα)

Reference: patent US20250340590A1, “PEPTIDE HAVING ANTI-INFLAMMATORY ACTIVITY AND USE THEREOF” (CAREGEN CO., LTD., priority 2021, published 2025)
